5 compounds from patent US7825151B2, “Hexahydro-cyclooctyl pyrazole cannabinoid modulators” (priority 2005, dated 2010) can be followed below.

pEC50, pIC50: −log10 of the molar value. Values joined by “and” are separate entries in the source; they are usually repeats but may differ in a detail not shown here. Equal entries are not always repeated.

The target in assay [1] is T1, human CB1 receptor (Homo sapiens, UniProt P21554).
T1 construct: expressed in transfected cells; host or cells: SK-N-MC cells, stably transfected with pcDNA3 CB-1 (human)
Kind of assay: Binding assay for CB1 ([3H]-CP-55,940 displacement, SK-N-MC membranes). As to conditions: for pIC50: Cannabinoid CB1 Receptor Binding IC50, radioligand CP-55,940 0.2 nM, SK-N-MC membranes; for inhibition at 10 µM: test concentration 10 μM (footnote 1). How it is done: (§1) The human CB1 and CB2 receptors were stably expressed in SK-N-MC cells transfected with pcDNA3 CB-1 (human) or pcDNA3 CB-2 (human). The cells were grown in T-180 cell culture flasks under standard cell culture conditions at 37° C. in a 5% CO2 atmosphere. The cells were harvested by trysinization and homogenized in a homogenization buffer (10 mM Tris, 0.2 mM MgCl2, 5 mM KCl, with protease inhibitors aprotinin, leupeptin, pepstatin A and bacitracin) and centrifuged (2000 g). The supernatant was then centrifuged in 2M sucrose (31,300 g) to produce a semi-purified membrane pellet. The pellet was resuspended in homogenization and stored at −80° C.
(§2) On the day of the assay, the pellet was thawed on ice and diluted in assay buffer (50 mM Tris-HCl, 5 mM MgCl2, 2.5 mM EDTA, 0.5 mg/mL fatty acid free bovine serum albumin, pH 7.5). The diluted membrane pellet was added with buffer, either a test compound or vehicle standard and the radioligand [H]^3+-CP-55,940 (0.2 nM) to the wells of a 96-well polypropylene plate. Non-specific binding was measured in wells containing WIN 55,212 (10 uM). The plate was covered and incubated for 90 minutes at 30° C. The contents were then aspirated onto a Packard Unifilter GF/C filter bottom plate prewet with 0.5% polyethyleneimine. The wells of the polypropylene plate were rinsed and aspirated seven times with a 0.9% saline-0.5% Tween 20 solution. The Unifilter plate was dried, scintillation cocktail was added to each well and the counts representing binding were quantitated in a TopCount scintillation counter.
(§3) For compounds tested, an IC50 binding value was obtained from percent inhibition studies in which various test concentrations were used. The binding value was calculated by linear regression.
(§4) For compounds without an IC50 binding value, the percent inhibition (%) was obtained at a test concentration of ^(1)10 μM, ^(2)1 μM, ^(3)0.2 μM, ^(4)0.003 μM, ^(5) represents an average value.

The target in assay [2] is T2, CB2 receptor (Homo sapiens, UniProt P34972).
T2 construct: expressed in transfected cells; host or cells: SK-N-MC cells, stably transfected with pcDNA3 CB-2 (human)
Kind of assay: Binding assay for CB2 ([3H]-CP-55,940 displacement, SK-N-MC membranes). As to conditions: for pIC50: Cannabinoid CB2 Receptor Binding IC50, radioligand CP-55,940 0.2 nM, SK-N-MC membranes. The protocol: as §1, §2, §3, §4

Assay [3] deals with T1, human CB1 receptor. The experiment in a line: Functional cell-based CRE β-gal assay, CB1 (adenylate cyclase activity). The note with it: single test concentration 10 μM (footnote 1). An excerpt:
(§5) The CB1 and CB2 receptors are G-protein coupled receptors (GPCR), which influence cell function via the Gi-protein. These receptors modulate the activity of intracellular adenylate cyclase, which in turn produces the intracellular signal messenger cyclic-AMP (cAMP).
(§6) At baseline, or during non-ligand bound conditions, these receptors are constitutively active and tonically suppress adenylate cyclase activity. The binding of an agonist causes further receptor activation and produces additional suppression of adenylate cyclase activity. The binding of an inverse agonist inhibits the constitutive activity of the receptors and results in an increase in adenylate cyclase activity.
(§7) By monitoring intracellular adenylate cyclase activity, the ability of compounds to act as agonists or inverse agonists can be determined.
(§8) Test compounds were evaluated in SK-N-MC cells which, using standard transfection procedures, were stably transfected with human cDNA for pcDNA3-CRE β-gal and pcDNA3 CB1 receptor (human) or pcDNA3 CB2 receptor (human). By expressing CRE β-gal, the cells produced β-galactosidase in response to CRE promoter activation by cAMP. Cells expressing CRE β-gal and either the human CB1 or CB2 receptor will produce less β-galactosidase when treated with a CB1/CB2 agonist and will produce more β-galactosidase when treated with a CB1/CB2 inverse agonist.
(§9) The cells were grown in 96-well plates under standard cell culture conditions at 37° C. in a 5% CO2 atmosphere. After 3 days, the media was removed and a test compound in media (wherein the media was supplemented with 2 mM L-glutamine, […] sodium pyruvate, 0.1% low fatty acid FBS (fetal bovine serum) and antibiotics) was added to the cell. The plates were incubated for 30 minutes at 37° C. and the plate cells were then treated with forskolin over a 4-6 hour period, then washed and lysed. The β-galactosidase activity was quantitated using commercially available kit reagents (Promega Corp. Madison, Wis.) and a Vmax Plate Reader (Molecular Devices, Inc).
(§10) The change in β-galactosidase activity was determined by setting a vehicle treated cell's activity value at 100% and expressing the β-galactosidase activity measured in a corresponding compound treated cell as a percent of the vehicle treated cell activity.
The EC50 value for functional activity for compounds tested was calculated by linear regression and was obtained from studies in which varying compound concentrations were used. Data provided for certain compounds is represented by percent change (%) in functional activity at a single test concentration: ^(1)10 μM and ^(2)1 μM.

Assay [4] addresses T2, CB2 receptor. Kind of assay: Functional cell-based CRE β-gal assay, CB2 (adenylate cyclase activity).
From the text: as §5, §6, §7, §8, §9
For cells expressing CRE β-gal and the CB2 receptor, CB2 agonists reduced β-galactosidase activity in a dose-dependent manner and CB2 inverse agonists increase β-galactosidase activity in a dose-dependent manner.
as §10
The EC50 value for functional activity for compounds tested was calculated by linear regression and was obtained from studies in which varying compound concentrations were used.
The value of 29% for Compound 5 represents change in functional activity and was obtained from a study in which one compound concentration was used.

The target in assay [5] is T2, CB2 receptor. The experiment in a line: Modified functional cell-based assay (Beta-Glo luminescence), CB2 agonist. The protocol:
Additional functional activity studies were performed with minor modifications. Beta galactosidase activity was quantified using the luminescent Beta-Glo Assay System (Promega Corp. Madison, Wis.) and an Orion Microplate Luminometer (Berthold Detection Systems, Oak Ridge, Tenn.). The EC50 values were calculated using GraphPad Prism and a four parameter logistic equation.

The mark [6] stands for this setting: read-out: CB1 receptor binding percent inhibition.

T1 sequence (P21554 whole entry): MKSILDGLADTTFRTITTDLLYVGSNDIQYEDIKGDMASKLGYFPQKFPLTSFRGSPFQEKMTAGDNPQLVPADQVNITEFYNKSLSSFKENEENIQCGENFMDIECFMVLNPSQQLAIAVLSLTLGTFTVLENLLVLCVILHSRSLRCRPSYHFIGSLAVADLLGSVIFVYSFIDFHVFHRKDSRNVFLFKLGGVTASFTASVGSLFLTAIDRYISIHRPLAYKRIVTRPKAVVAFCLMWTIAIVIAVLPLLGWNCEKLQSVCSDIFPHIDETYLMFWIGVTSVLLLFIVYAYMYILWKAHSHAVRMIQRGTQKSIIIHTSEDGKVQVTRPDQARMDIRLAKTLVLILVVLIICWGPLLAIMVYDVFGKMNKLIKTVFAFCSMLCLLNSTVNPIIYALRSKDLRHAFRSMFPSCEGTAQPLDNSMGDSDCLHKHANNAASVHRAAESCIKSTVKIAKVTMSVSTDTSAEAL
T2 sequence (P34972 whole entry): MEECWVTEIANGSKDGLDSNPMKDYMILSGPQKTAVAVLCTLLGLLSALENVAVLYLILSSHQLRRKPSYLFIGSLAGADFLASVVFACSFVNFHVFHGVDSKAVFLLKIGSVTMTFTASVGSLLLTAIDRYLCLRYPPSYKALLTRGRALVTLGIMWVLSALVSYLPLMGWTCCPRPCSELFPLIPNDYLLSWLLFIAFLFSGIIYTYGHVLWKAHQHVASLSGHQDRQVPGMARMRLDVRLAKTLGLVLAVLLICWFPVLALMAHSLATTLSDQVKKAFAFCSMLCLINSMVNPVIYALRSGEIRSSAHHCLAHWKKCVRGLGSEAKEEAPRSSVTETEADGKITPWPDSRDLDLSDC

As a reminder, the pIC50 is −log10 of the IC50, conventionally taken in molar units. A higher pIC50 goes with a small IC50. The pEC50 is −log10 of the EC50, conventionally taken in molar units. A higher pEC50 goes with a small EC50. Consider `CC12CCC(C1)C(C)(C)C2NC(=O)c1nn(C2CCCCC2)c2c1CCCCCC2` (stereo not drawn) [Cpd 1, 1-cyclohexyl-4,5,6,7,8,9-hexahydro-1H-cyclooctapyrazole-3-carboxylic acid (1,3,3-trimethyl-bicyclo[2.2.1]hept-2-yl)-amide], for which the pIC50 is 7.40 in assay [1]; 10.00 and 10.05 in assay [2]. Moreover, the “CB1 receptor percent change in functional activity” value (from here on “CB1 receptor percent change”) in assay [3] is reported as “^(1)−78%”. For the same compound, in assay [4], the negative logarithm of the EC50 (pEC50) was 8.80.
Usually inhibition stands for how much of the control response was suppressed. `CC(NC(=O)c1nn(C2CCCC2)c2c1CCCCCC2)C12CC3CC(CC(C3)C1)C2` (stereo not drawn) [Cpd 5, 1-cyclopentyl-4,5,6,7,8,9-hexahydro-1H-cyclooctapyrazole-3-carboxylic acid (1-adamantan-1-yl-ethyl)-amide]: in assay [1] (setting [6]), the inhibition at 10 µM was 47%. In assay [2], the pIC50 was 7.00. For the same compound, the “CB1 receptor percent change” value in assay [3] is “^(1)10%”. Moreover, the “CB2 receptor change in functional activity” value in assay [4] (one compound concentration) stood at 29%.
As for `O=C(N[C@@H](CO)c1ccccc1)c1n[nH]c2c1CCCCC/C2=C\c1cccc(Cl)c1` [Cpd 31, (9E)-(3-chloro-benzylidene)-4,5,6,7,8,9-hexahydro-1H-cyclooctapyrazole-3-carboxylic acid [(1R)-2-hydroxy-1-phenyl-ethyl]-amide], the negative-log EC50 (pEC50) in assay [5] was 7.74.
Take `CC(NC(=O)c1nn(C2CCCCC2)c2c1CCCCCC2)C12CC3CC(CC(C3)C1)C2` (stereo not drawn) [Cpd 6, 1-cyclohexyl-4,5,6,7,8,9-hexahydro-1H-cyclooctapyrazole-3-carboxylic acid (1-adamantan-1-yl-ethyl)-amide]: the pIC50 in assay [1] is 6.52; in assay [2], 9.22 and 9.15. Besides, the inhibition at 1 µM in assay [1] (test concentration 1 μM (footnote 2), read-out: CB1 receptor binding percent inhibition) came out at 86%; in assay [2] (read-out: CB2 receptor binding percent inhibition), 91%. This compound gave a pEC50 in assay [4] of 7.54.
As to `O=C(NCC12CC3CC(CC(C3)C1)C2)c1nn(C2CCCC2)c2c1CCCCCC2` [Cpd 3, 1-cyclopentyl-4,5,6,7,8,9-hexahydro-1H-cyclooctapyrazole-3-carboxylic acid (adamantan-1-ylmethyl)-amide], in assay [1] (setting [6]), the inhibition at 10 µM is 45%. Also, the pIC50 in assay [2] is 7.70. The “CB1 receptor percent change” value in assay [3] is listed as “^(1)−6%”. In assay [4], this compound showed a pEC50 of 6.70.
